Reference: ChEMBL document CHEMBL1201862, “PubChem BioAssay data set” (2004)
The source made the active and inactive calls.

Legend:
[1] = cells; assay type: functional
[2] = molecular target: T1, Sentrin-specific protease 1 (Homo sapiens, UniProt Q9P0U3); assay: potency of human SENP1 inhibitors, dose response, biochemical, kinetic FRET (AID 651697); assay type: functional; conditions: read-out: IC50_Mean
[3] = molecular target: T1, Sentrin-specific protease 1; assay: Dose response confirmation of small molecule inhibitors of the catalytic domain of the SUMO protease, SENP1 in a FRET assay.; assay type: functional; conditions: read-out: IC50_Mean
[4] = tested on: Cryptococcus neoformans; assay: PubChem AID 686997; assay type: functional, organism-based
[5] = tested on: HEK293; assay: HEK293T cell cytotoxicity, dose response, cytotoxicity control, ATP luminescence, cherry-pick samples (AID 687005); assay type: functional, cell-based; conditions: Homo sapiens;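 note: cells exposed to compound for 48 hours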
[6] = HEK293 Cytotoxicity Assay Measured in Cell-Based System Using Plate Reader - 7071-01_Inhibitor_Dose_CherryPick_Activity_Set2.; assay type: functional
[7] = molecular target: Beta-lactamase (Pseudomonas aeruginosa, UniProt Q79MP6);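 note: biochemical dose-response test of metallo-beta-lactamase enzyme inhibition, read out by epi-absorbance; purified recombinant IMP-1 metallo-beta-lactamase with nitrocefin as substrate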
Chain of Beta-lactamase (Pseudomonas aeruginosa, UniProt Q79MP6) (Q79MP6 whole entry): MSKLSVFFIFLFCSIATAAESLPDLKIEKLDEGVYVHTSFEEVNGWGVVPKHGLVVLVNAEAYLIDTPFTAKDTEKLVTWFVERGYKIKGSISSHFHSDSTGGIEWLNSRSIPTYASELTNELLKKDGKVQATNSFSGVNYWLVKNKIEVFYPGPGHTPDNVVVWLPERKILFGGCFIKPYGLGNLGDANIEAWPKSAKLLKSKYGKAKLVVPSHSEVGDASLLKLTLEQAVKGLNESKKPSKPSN

[8] = molecular target: Beta-lactamase (Salmonella choleraesuis (strain SC-B67), UniProt Q5J463)
Chain of Beta-lactamase (Salmonella choleraesuis (strain SC-B67), UniProt Q5J463) (Q5J463 whole entry): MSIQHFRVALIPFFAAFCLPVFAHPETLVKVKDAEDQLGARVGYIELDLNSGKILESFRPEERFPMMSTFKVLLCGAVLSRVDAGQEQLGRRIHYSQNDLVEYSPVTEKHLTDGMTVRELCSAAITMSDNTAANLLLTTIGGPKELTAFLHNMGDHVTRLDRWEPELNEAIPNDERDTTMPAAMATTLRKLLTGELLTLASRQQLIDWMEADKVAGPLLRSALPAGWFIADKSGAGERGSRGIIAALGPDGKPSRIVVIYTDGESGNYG

[9] = THP-1 cell cytotoxicity, dose response, cytotoxicity control for non-replicating M. tuberculosis project (AID 489025); assay type: functional
[10] = DNA binding of candidate compounds, dose response, artefact control for RAD54 inhibitor project, biochemical, fluorescence polarization, cherry-pick (AID 651673); assay type: functional
[11] = molecular target: T2, DNA repair and recombination protein RAD54-like (Homo sapiens, UniProt Q92698); assay: inhibitors of human RAD54 branch migration, confirmation, biochemical, fluorescence, cherry-picked samples, dose series (AID 651657); assay type: functional
T2 sequence (Q92698 whole entry): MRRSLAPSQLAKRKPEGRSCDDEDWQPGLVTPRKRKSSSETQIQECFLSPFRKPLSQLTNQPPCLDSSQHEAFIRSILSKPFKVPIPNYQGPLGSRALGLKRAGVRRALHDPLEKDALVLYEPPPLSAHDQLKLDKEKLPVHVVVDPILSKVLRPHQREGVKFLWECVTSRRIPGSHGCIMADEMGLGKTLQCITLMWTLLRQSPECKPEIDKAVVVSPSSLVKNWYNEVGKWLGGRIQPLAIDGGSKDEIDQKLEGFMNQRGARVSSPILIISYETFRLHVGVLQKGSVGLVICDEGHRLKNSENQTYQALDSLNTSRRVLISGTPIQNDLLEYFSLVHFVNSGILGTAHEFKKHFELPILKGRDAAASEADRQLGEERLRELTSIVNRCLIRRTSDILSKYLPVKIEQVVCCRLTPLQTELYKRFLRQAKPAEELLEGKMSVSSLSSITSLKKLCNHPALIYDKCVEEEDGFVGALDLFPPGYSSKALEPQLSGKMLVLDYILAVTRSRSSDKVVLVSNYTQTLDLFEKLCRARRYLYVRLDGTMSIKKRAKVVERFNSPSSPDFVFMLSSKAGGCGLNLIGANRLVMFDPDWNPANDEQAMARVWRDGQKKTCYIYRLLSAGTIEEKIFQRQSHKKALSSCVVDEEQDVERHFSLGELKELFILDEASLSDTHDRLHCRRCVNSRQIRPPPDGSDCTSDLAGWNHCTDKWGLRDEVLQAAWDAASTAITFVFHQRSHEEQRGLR

[12] = molecular target: T3, DNA repair protein RAD52 homolog (Homo sapiens, UniProt P43351); assay type: functional, biochemical
T3 sequence (P43351 whole entry): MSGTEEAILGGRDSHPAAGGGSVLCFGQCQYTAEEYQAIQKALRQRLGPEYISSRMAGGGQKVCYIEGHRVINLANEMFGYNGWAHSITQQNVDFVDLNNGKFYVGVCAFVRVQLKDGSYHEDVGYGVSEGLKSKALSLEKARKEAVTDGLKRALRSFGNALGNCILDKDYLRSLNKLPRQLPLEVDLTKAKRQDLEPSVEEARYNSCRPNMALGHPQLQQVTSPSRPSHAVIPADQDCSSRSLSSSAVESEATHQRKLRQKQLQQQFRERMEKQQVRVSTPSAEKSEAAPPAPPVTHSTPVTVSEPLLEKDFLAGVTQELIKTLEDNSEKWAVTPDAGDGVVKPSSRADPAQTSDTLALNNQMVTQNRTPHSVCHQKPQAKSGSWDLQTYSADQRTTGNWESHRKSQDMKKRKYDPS

[13] = tested on: INS1; assay: beta cell apoptosis inhibitors, cytokine rescue, dose response, luminescence, retest (AID 449756); assay type: functional, cell-based; conditions: Rattus norvegicus;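 note: cell death triggered by IL-1 beta plus TNF-alpha plus IFN-gamma mixture; protective hits raise ATP signal compared with cytokine alone wells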
[14] = Shn3 3'UTR reporter inhibitors, dose response, cell-based, Clone20 osteoblasts, firefly luciferase, cherry-picked (AID 624132); assay type: functional;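 note: firefly luciferase luminescence from reporter carrying the Shn3 3'UTR in osteoblasts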
[15] = HepG2 cell cytotoxicity, dose response, cytotoxicity control for Shn3 inhibitor project, CellTiter-Glo, cherry-picked (AID 624134); assay type: functional, cell-based
[16] = control 3'UTR Renilla luciferase suppression, dose response, counter-screen for Shn3 inhibitor project, cell-based, Clone20-Shn3RL, cherry-picked (AID 624133); assay type: functional
[17] = tested on: BHK-21; assay: BHK-21 cell toxicity, dose response, cytotoxicity control, plate reader, cherry-pick samples (AID 687030); assay type: functional, cell-based; conditions: Mesocricetus auratus
[18] = tested on: A549; assay: A549 cell toxicity, dose response, cytotoxicity control, plate reader, cherry-pick samples (AID 687028); assay type: functional, cell-based; conditions: Homo sapiens
[19] = tested on: Vero; assay: Vero cell toxicity, dose response, cytotoxicity control, plate reader, cherry-pick samples (AID 687020); assay type: functional, cell-based; conditions: Chlorocebus sabaeus
[20] = A549 cell cytotoxicity, dose response, cytotoxicity control, plate reader, cherry-pick, antagonist series (AID 743412); assay type: functional, cell-based
[21] = LGR2 antagonists, dose response, cell-based, HEK293, CRE-luciferase reporter, cherry pick (AID 743342); assay type: functional
[22] = MC4R antagonists, dose response, counter-screen for LGR2 antagonist project, cell-based, plate reader, cherry pick (AID 743444); assay type: functional;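 note: transfected HEK 293 cells stimulated with alpha-MSH peptide; potency of inhibitors of the alpha-MSH evoked signal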
[23] = tested on: HeLa; assay: HeLa cell cytotoxicity, dose response, cytotoxicity control, ATP luminescence, cherry-pick samples (AID 687004); assay type: functional, cell-based; conditions: Homo sapiens

T1 sequence (Q9P0U3 whole entry, the tested form may be a part): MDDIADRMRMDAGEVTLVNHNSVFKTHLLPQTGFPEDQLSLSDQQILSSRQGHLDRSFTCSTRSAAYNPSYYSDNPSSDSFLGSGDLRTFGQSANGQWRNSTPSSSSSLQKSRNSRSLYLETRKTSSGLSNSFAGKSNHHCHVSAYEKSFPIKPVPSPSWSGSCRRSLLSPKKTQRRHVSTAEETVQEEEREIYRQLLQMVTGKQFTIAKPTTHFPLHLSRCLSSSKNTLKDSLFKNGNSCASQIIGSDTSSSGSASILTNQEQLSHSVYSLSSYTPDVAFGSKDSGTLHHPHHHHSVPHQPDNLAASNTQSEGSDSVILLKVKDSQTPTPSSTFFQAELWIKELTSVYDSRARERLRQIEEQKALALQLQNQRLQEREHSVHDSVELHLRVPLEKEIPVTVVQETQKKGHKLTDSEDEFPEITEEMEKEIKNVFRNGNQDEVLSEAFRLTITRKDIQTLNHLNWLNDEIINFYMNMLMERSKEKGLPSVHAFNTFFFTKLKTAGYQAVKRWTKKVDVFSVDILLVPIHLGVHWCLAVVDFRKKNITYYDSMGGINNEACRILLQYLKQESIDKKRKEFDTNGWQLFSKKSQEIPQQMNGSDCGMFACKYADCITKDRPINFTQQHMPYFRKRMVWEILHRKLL

## O=C(Nc1nccs1)c1cc2cc(Cl)ccc2oc1=O
[1]
  IC50: 1.37 µM (active)
[2]
  IC50: 1.84 µM (active)
[3]
  IC50: 3.49 µM (active)

## COC(=O)C1=C(C)N(Cc2ccc(F)cc2)C(=S)NC1c1cccc(Br)c1 (stereo not given)
[4]
  AC50: 36.7 µM (active)
[5]
  AC50: 6.17 µM (active)
[6]
  AC50: 6.17 µM (active)

## N=C1/C(=C\c2coc3ccccc3c2=O)C(=O)N=C2SC=CN12
[7]
  IC50: 36.4 µM (inactive)
[8]
  IC50: > 59.6 µM (inactive)
[9]
  CC50: > 40 µM (active)

## c1cncc(Nc2c3ccccc3nc3ccccc23)c1
[10]
  AC50: 49.5 µM (active)
[11]
  AC50: 12.8 µM (active)
[12]
  AC50: 7.23 µM (active)

## CC(=O)NC(c1cc(Cl)c2cccnc2c1O)C(C)C (stereo not given)
[13]
  AC50: 1.76 µM (active)
[14]
  AC50: 2.96 µM (active)
[15]
  AC50: 5.13 µM (active)
[16]
  AC50: 2.71 µM (active)
[17]
  AC50: 21.6 µM (active)
[18]
  AC50: 23.5 µM (active)

## COc1cc(C)ccc1OCc1cc(C(=O)NCCN2CCCC(O)C2)no1 (stereo not given)
[19]
  AC50: 30 µM (active)

## C[C@H](CO)N1C[C@H](C)[C@H](CN(C)C(=O)Nc2ccccc2)OCCCC[C@H](C)Oc2ccc(NC(=O)Nc3ccc4c(c3)OCO4)cc2C1=O
[20]
  AC50: > 52 µM (inactive)
[21]
  AC50: 36.6 µM (active)
[22]
  AC50: 25.4 µM (active)

## O=S(=O)(c1ccc(F)cc1)N1C[C@@H]2[C@H](c3ccccc31)[C@@H](CO)N2Cc1ccccc1Cl
[23]
  AC50: > 47 µM (inactive)
[5]
  AC50: 18.9 µM (active)
[6]
  AC50: 18.9 µM (active)
